Data on 26 molecules can be found in patent US20090099158A1, “TETRAHYDROISOQUINOLINE COMPOUNDS AS MODULATORS OF THE HISTAMINE H3 RECEPTOR” (priority 2007, published 2009).

This test deals with T1, cloned human H3 receptors (Homo sapiens, UniProt Q9Y5N1).
T1 construct: expressed in transfected cells; host or cells: SK-N-MC cells
Nature of the test: H3 Receptor Binding (Human). The conditions noted are these: cloned human H3 receptors stably expressed in SK-N-MC cells; average of the results obtained. As for the experimental part: Binding of compounds to the cloned human H3 receptors, stably expressed in SK-N-MC cells, was performed as described by Barbier, A. J. et al. (Br. J. Pharmacol. 2004, 143(5), 649-661). Data for compounds tested in this assay are presented in Table 1 as an average of the results obtained.

T1 sequence (Q9Y5N1 whole entry): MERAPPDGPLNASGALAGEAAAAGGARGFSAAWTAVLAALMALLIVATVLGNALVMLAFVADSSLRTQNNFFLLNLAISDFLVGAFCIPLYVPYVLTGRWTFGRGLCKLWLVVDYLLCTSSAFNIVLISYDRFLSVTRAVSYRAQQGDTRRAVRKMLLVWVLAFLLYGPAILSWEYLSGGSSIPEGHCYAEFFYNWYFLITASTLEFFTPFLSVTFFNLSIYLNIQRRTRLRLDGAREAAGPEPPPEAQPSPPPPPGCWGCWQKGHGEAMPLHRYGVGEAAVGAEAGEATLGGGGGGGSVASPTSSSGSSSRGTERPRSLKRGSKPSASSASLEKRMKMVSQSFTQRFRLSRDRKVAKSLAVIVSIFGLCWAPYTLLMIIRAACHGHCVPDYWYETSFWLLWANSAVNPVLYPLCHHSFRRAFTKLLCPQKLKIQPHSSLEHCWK

Regarding `O=C(C1CCCCC1)N1CCc2cc(C(=O)N3CCC[C@H]3CN3CCCC3)ccc2C1` [Example 150, (S)-Cyclohexyl-[6-(2-Pyrrolidin-1-ylmethyl-pyrrolidine-1-carbonyl)-3,4-dihydro-1H-isoquinolin-2-yl]-methanone], the Ki (in general, a dissociation constant, usually derived from enzyme kinetics or from competition with a known ligand) was 0.009 µM.
Regarding `O=C(c1ccc2c(c1)CCN(C(=O)C1CCCCC1)C2)N1CCN(CC2CCCO2)CC1` (centres unmarked) [Example 151, Cyclohexyl-{6-[4-(tetrahydro-furan-2-ylmethyl)-piperazine-1-carbonyl]-3,4-dihydro-1H-isoquinolin-2-yl}-methanone], the Ki was 5.2 µM.
As for `O=C(c1ccc2c(c1)CCN(C(=O)C1CCCCC1)C2)N1CCN2CCCCC2C1` (centres unmarked) [Example 152, Cyclohexyl-[6-(octahydro-pyrido[1,2-a]pyrazine-2-carbonyl)-3,4-dihydro-1H-isoquinolin-2-yl]-methanone], the figure is 0.009 µM.
As for `O=C(c1ccc2c(c1)CCN(C(=O)C1CCCCC1)C2)N1CCN2CCCC2C1` (centres unmarked) [Example 153, Cyclohexyl-[6-(hexahydro-pyrrolo[1,2-a]pyrazine-2-carbonyl)-3,4-dihydro-1H-isoquinolin-2-yl]-methanone], the figure is 0.054 µM.
As for `CN(C)C1CCN(C(=O)c2ccc3c(c2)CCN(C(=O)C2CCCCC2)C3)CC1` [Example 154, Cyclohexyl-[6-(4-dimethylamino-piperidine-1-carbonyl)-3,4-dihydro-1H-isoquinolin-2-yl]-methanone], the Ki worked out at 0.441 µM.
Consider `CN(C)[C@@H]1CCN(C(=O)c2ccc3c(c2)CCN(C(=O)C2CCCCC2)C3)C1` [Example 155, (R)-Cyclohexyl-[6-(3-dimethylamino-pyrrolidine-1-carbonyl)-3,4-dihydro-1H-isoquinolin-2-yl]-methanone], for which the affinity, expressed as Ki, was 0.65 µM.
Molecule `CN(C)[C@H]1CCN(C(=O)c2ccc3c(c2)CCN(C(=O)C2CCCCC2)C3)C1` [Example 156, (S)-Cyclohexyl-[6-(3-dimethylamino-pyrrolidine-1-carbonyl)-3,4-dihydro-1H-isoquinolin-2-yl]-methanone] returned an inhibition constant Ki of 0.03 µM.
As for `O=C(c1ccc2c(c1)CCN(C(=O)C1CCCCC1)C2)N1CCC(N2CCCCC2)CC1` [Example 157, [6-([1,4′]Bipiperidinyl-1′-carbonyl)-3,4-dihydro-1H-isoquinolin-2-yl]-cyclohexyl-methanone], the figure is 0.11 µM.
As for `O=C(c1ccc2c(c1)CCN(C(=O)C1CCCCC1)C2)N1CCC(N2CCOCC2)CC1` [Example 158, Cyclohexyl-[6-(4-morpholin-4-yl-piperidine-1-carbonyl)-3,4-dihydro-1H-isoquinolin-2-yl]-methanone], the figure is 4.09 µM.
As for `O=C(c1ccc2c(c1)CCN(C(=O)C1CCCCC1)C2)N1CCN(C2CCCC2)CC1` [Example 159, Cyclohexyl-[6-(4-cyclopentyl-piperazine-1-carbonyl)-3,4-dihydro-1H-isoquinolin-2-yl]-methanone], the figure is 0.037 µM.
The molecule `O=C(c1ccc2c(c1)CCN(C(=O)C1CCCCC1)C2)N1CCN(C2CCCCC2)CC1` [Example 160, Cyclohexyl-[6-(4-cyclohexyl-piperazine-1-carbonyl)-3,4-dihydro-1H-isoquinolin-2-yl]-methanone] yielded a Ki of 0.084 µM.
`CN1CCC(N(C)C(=O)c2ccc3c(c2)CCN(C(=O)C2CCCCC2)C3)C1` (centres unmarked) [Example 161, 2-Cyclohexanecarbonyl-1,2,3,4-tetrahydro-isoquinoline-6-carboxylic acid methyl-(1-methyl-pyrrolidin-3-yl)-amide] gave a Ki of 0.421 µM.
As for `CC(C)N1CCCN(C(=O)c2ccc3c(c2)CCN(C(=O)C2CCCCC2)C3)CC1` [Example 162, Cyclohexyl-[6-(4-isopropyl-[1,4]diazepane-1-carbonyl)-3,4-dihydro-1H-isoquinolin-2-yl]-methanone], the figure is 0.004 µM; as for `O=C(c1ccc2c(c1)CCN(C(=O)C1CCCCC1)C2)N1CC2CN(C3CCC3)CC2C1` (centres unmarked) [Example 163, (5-Cyclobutyl-hexahydro-pyrrolo[3,4-c]pyrrol-2-yl)-(2-cyclohexanecarbonyl-1,2,3,4-tetrahydro-isoquinolin-6-yl)-methanone], 0.17 µM; as for `O=C(C1CCCCC1)N1CCc2cc(C(=O)N3C[C@@H]4C[C@H]3CN4C3CCC3)ccc2C1` [Example 164, (1S,4S)-(5-Cyclobutyl-2,5-diaza-bicyclo[2.2.1]hept-2-yl)-(2-cyclohexanecarbonyl-1,2,3,4-tetrahydro-isoquinolin-6-yl)-methanone], 1.15 µM.
In turn, `O=C(c1ccc2c(c1)CCN(C(=O)C1CCCCC1)C2)N1CC2CCN(C3CCC3)C2C1` (centres unmarked) [Example 165, (1-Cyclobutyl-hexahydro-pyrrolo[3,4-b]pyrrol-5-yl)-(2-cyclohexanecarbonyl-1,2,3,4-tetrahydro-isoquinolin-6-yl)-methanone] registered a Ki of 0.3 µM.
In turn, `O=C(C1CCCCC1)N1CCc2cc(CN3CCCCC3)ccc2C1` [Example 166, Cyclohexyl-(6-piperidin-1-ylmethyl-3,4-dihydro-1H-isoquinolin-2-yl)-methanone] came in with a Ki of 0.045 µM.
For `O=C(C1CCCCC1)N1CCc2cc(CN3CCOCC3)ccc2C1` [Example 167, Cyclohexyl-(6-morpholin-4-ylmethyl-3,4-dihydro-1H-isoquinolin-2-yl)-methanone] the value was 1.39 µM; for `O=C(C1CCCCC1)N1CCc2cc(CN3CCN4CCCCC4C3)ccc2C1` (centres unmarked) [Example 168, Cyclohexyl-[6-(octahydro-pyrido[1,2-a]pyrazin-2-ylmethyl)-3,4-dihydro-1H-isoquinolin-2-yl]-methanone], 0.013 µM; for `O=C(C1CCCCC1)N1CCc2cc(CN3CCC[C@H]3CN3CCCC3)ccc2C1` [Example 169, Cyclohexyl-[6-(2-pyrrolidin-1-ylmethyl-pyrrolidin-1-ylmethyl)-3,4-dihydro-1H-isoquinolin-2-yl]-methanone], 0.269 µM.
As for `O=C(C1CCCCC1)N1CCc2cc(CN3CCN(C4CCC4)CC3)ccc2C1` [Example 170, [6-(4-Cyclobutyl-piperazin-1-ylmethyl)-3,4-dihydro-1H-isoquinolin-2-yl]-cyclohexyl-methanone], the figure is 0.86 µM; as for `O=C(C1CCCCC1)N1CCc2cc(CN3CCCN(C4CCC4)CC3)ccc2C1` [Example 171, [6-(4-Cyclobutyl-[1,4]diazepan-1-ylmethyl)-3,4-dihydro-1H-isoquinolin-2-yl]-cyclohexyl-methanone], 0.023 µM; as for `O=C(c1ccc2c(c1)CCN(C1CCCC1)C2)N1CCOCC1` [Example 172, (2-Cyclopentyl-1,2,3,4-tetrahydro-isoquinolin-6-yl)-morpholin-4-yl-methanone], 2.8 µM.
In turn, `CC(C)N1CCc2cc(C(=O)N3CCCCC3)ccc2C1` [Example 173, (2-Isopropyl-1,2,3,4-tetrahydro-isoquinolin-6-yl)-piperidin-1-yl-methanone] gave a Ki of 1.8 µM.
For `CC(C)N1CCc2cc(C(=O)N3CCOCC3)ccc2C1` [Example 174, (2-Isopropyl-1,2,3,4-tetrahydro-isoquinolin-6-yl)-morpholin-4-yl-methanone] the value was 2.14 µM.
In turn, `CC(C)N1CCc2cc(C(=O)N3CCN4CCCCC4C3)ccc2C1` (centres unmarked) [Example 175, (2-Isopropyl-1,2,3,4-tetrahydro-isoquinolin-6-yl)-(octahydro-pyrido[1,2-a]pyrazin-2-yl)-methanone] displayed an inhibition constant Ki of 0.002 µM.
